We go through 12 molecules from patent US11077090B2, “Compounds and compositions and uses thereof” (Sunovion Pharmaceuticals Inc., priority 2016, dated 2021).

This assay concerns compound-treated mice. As to the kind of experiment: Neuropharmacological assay (SmartCube): behavioral activity signature and minimal effective dose. In kind it is in vivo. Conditions: for minimal effective dose: Mus musculus, ip, MED = dose having 50% or more total activity, read-out: Potency: minimal effective dose (MED); for AD: ADHD (probability of activity signature) / AG: analgesic (probability of activity signature) / AX: anxiolytic (probability of activity signature) / CE: cognitive enhancer (probability of activity signature) / DP: anti-depressant (probability of activity signature) / MS: mood stabilizer (probability of activity signature) / PS: anti-psychotic (probability of activity signature) / SD: sedative hypnotic (probability of activity signature) / UN: uncharacterized CNS activity (probability of activity signature): i.p. 15 min before test, most efficacious dose(s). The method in brief: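 Mice dosed i.p. 15 min before test, compound in N-methyl-2-pyrrolidone/PEG/propylene glycol, 3 doses; video-captured behavior matched to reference-drug signatures, giving per-class probabilities at most efficacious dose. MED from doses typically 0.3–30 mpk, defined as lowest dose with ≥50% total activity.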

The term minimal effective dose denotes the lowest level tested that produced the effect sought. On to `Cc1ccc2c(c1Cl)C(N)COC2.Cl` (stereo not drawn) [Example 45, 5-Chloro-6-methylisochroman-4-amine hydrochloride], for which the minimal effective dose lay in the range of 3 to 10 mg/kg, the “AD: ADHD (probability of activity signature)” value (“AD: ADHD” for short) is “+ (LOQ ≤ + <5%)”, the “AG: analgesic (probability of activity signature)” value (“AG: analgesic” below) is reported as “++ (5% ≤ ++ <25%)” and the “AX: anxiolytic (probability of activity signature)” value (“AX: anxiolytic” below) is “+++ (25% ≤ +++ <50%)”. For the same molecule, the “CE: cognitive enhancer (probability of activity signature)” value (“CE: cognitive enhancer” for short) was “++ (5% ≤ ++ <25%)”, the “DP: anti-depressant (probability of activity signature)” value (from here on “DP: anti-depressant”) was “++ (5% ≤ ++ <25%)”, the “MS: mood stabilizer (probability of activity signature)” value (shortened to “MS: mood stabilizer”) is “+ (LOQ ≤ + <5%)” and the “PS: anti-psychotic (probability of activity signature)” value (“PS: anti-psychotic” below) is on record as “++ (5% ≤ ++ <25%)”. Further, the “SD: sedative hypnotic (probability of activity signature)” value (“SD: sedative hypnotic” for short) was “++ (5% ≤ ++ <25%)” and the “UN: uncharacterized CNS activity (probability of activity signature)” value (“UN: uncharacterized CNS activity” for short) is given as “++++ (50% ≤ ++++)”.
`Cc1cc(C)c2c(c1)C(N)COC2.Cl` (stereo not drawn) [Example 46, 6,8-Dimethylisochroman-4-amine hydrochloride]: the minimal effective dose was < 3 mg/kg, the “AD: ADHD” value was “+ (LOQ ≤ + <5%)”, the “AG: analgesic” value was “++ (5% ≤ ++ <25%)” and the “AX: anxiolytic” value was “++ (5% ≤ ++ <25%)”. For the same molecule, the “CE: cognitive enhancer” value is reported as “++ (5% ≤ ++ <25%)”, the “DP: anti-depressant” value is given as “+ (LOQ ≤ + <5%)”, the “MS: mood stabilizer” value is listed as “+ (LOQ ≤ + <5%)” and the “PS: anti-psychotic” value was “+ (LOQ ≤ + <5%)”. In addition, the “SD: sedative hypnotic” value was “++ (5% ≤ ++ <25%)” and the “UN: uncharacterized CNS activity” value was “++++ (50% ≤ ++++)”.
Take `Cc1ccc(C)c2c1COCC2N.Cl` (stereo not drawn) [Example 47, 5,8-Dimethylisochroman-4-amine hydrochloride]: the minimal effective dose was < 3 mg/kg, the “AD: ADHD” value is given as “+ (LOQ ≤ + <5%)”, the “AG: analgesic” value is reported as “++ (5% ≤ ++ <25%)” and the “AX: anxiolytic” value is “++ (5% ≤ ++ <25%)”. For the same molecule, the “CE: cognitive enhancer” value was “++ (5% ≤ ++ <25%)”, the “DP: anti-depressant” value is on record as “++ (5% ≤ ++ <25%)”, the “MS: mood stabilizer” value is reported as “++ (5% ≤ ++ <25%)” and the “PS: anti-psychotic” value is “++ (5% ≤ ++ <25%)”. For the same molecule, the “SD: sedative hypnotic” value was “+ (LOQ ≤ + <5%)” and the “UN: uncharacterized CNS activity” value was “++++ (50% ≤ ++++)”.
In the case of `Cc1ccc(Cl)c2c1C(N)COC2.Cl` (stereo not drawn) [Example 48, 8-Chloro-5-methylisochroman-4-amine hydrochloride], the minimal effective dose is < 3 mg/kg, the “AD: ADHD” value is recorded as “+ (LOQ ≤ + <5%)”, the “AG: analgesic” value is “++ (5% ≤ ++ <25%)” and the “AX: anxiolytic” value is “+++ (25% ≤ +++ <50%)”. In addition, the “CE: cognitive enhancer” value is on record as “+++ (25% ≤ +++ <50%)”, the “DP: anti-depressant” value is listed as “+ (LOQ ≤ + <5%)”, the “MS: mood stabilizer” value was “+ (LOQ ≤ + <5%)” and the “PS: anti-psychotic” value is “++ (5% ≤ ++ <25%)”. Besides, the “SD: sedative hypnotic” value is “++ (5% ≤ ++ <25%)” and the “UN: uncharacterized CNS activity” value is “++ (5% ≤ ++ <25%)”.
With `Cc1cc(Cl)c2c(c1)C(N)COC2.Cl` (stereo not drawn) [Example 49, 8-Chloro-6-methylisochroman-4-amine hydrochloride], the minimal effective dose is 3 to 10 mg/kg, the “AD: ADHD” value is “+ (LOQ ≤ + <5%)”, the “AG: analgesic” value is on record as “++ (5% ≤ ++ <25%)” and the “AX: anxiolytic” value is “++ (5% ≤ ++ <25%)”. Further, the “CE: cognitive enhancer” value was “++ (5% ≤ ++ <25%)”, the “DP: anti-depressant” value is listed as “++ (5% ≤ ++ <25%)”, the “MS: mood stabilizer” value was “+ (LOQ ≤ + <5%)” and the “PS: anti-psychotic” value is given as “++ (5% ≤ ++ <25%)”. The “SD: sedative hypnotic” value was “++ (5% ≤ ++ <25%)” and the “UN: uncharacterized CNS activity” value is recorded as “++++ (50% ≤ ++++)”.
For the molecule `Cl.NC1COCc2c1ccc1ccccc21` (stereo not drawn) [Example 50, 3,4-Dihydro-1H-benzo[h]isochromen-4-amine hydrochloride], the minimal effective dose lay within 10 to 30 mg/kg, the “AD: ADHD” value is given as “+ (LOQ ≤ + <5%)”, the “AG: analgesic” value is on record as “++ (5% ≤ ++ <25%)” and the “AX: anxiolytic” value was “++ (5% ≤ ++ <25%)”. The “CE: cognitive enhancer” value is recorded as “++ (5% ≤ ++ <25%)”, the “DP: anti-depressant” value is on record as “+++ (25% ≤ +++ <50%)”, the “MS: mood stabilizer” value is recorded as “+ (LOQ ≤ + <5%)” and the “PS: anti-psychotic” value is “++ (5% ≤ ++ <25%)”. The “SD: sedative hypnotic” value was “+ (LOQ ≤ + <5%)” and the “UN: uncharacterized CNS activity” value is on record as “++ (5% ≤ ++ <25%)”.
Turning to `Cl.NC1COCc2ccc3c(c21)C1CCC3C1` (stereo not drawn) [Example 51, 2,4,7,8,9,10-Hexahydro-1H-7,10-methanobenzo[f]isochromen-1-amine hydrochloride], the minimal effective dose was in the range of 3 to 10 mg/kg, the “AD: ADHD” value was “+ (LOQ ≤ + <5%)”, the “AG: analgesic” value was “++ (5% ≤ ++ <25%)” and the “CE: cognitive enhancer” value is listed as “++ (5% ≤ ++ <25%)”. The “MS: mood stabilizer” value is “+ (LOQ ≤ + <5%)”. In addition, under “hydrochloride”, the “AX: anxiolytic” value is listed as “++ (5% ≤ ++ <25%)”, the “DP: anti-depressant” value was “++ (5% ≤ ++ <25%)”, the “PS: anti-psychotic” value is “++ (5% ≤ ++ <25%)” and the “SD: sedative hypnotic” value is given as “+ (LOQ ≤ + <5%)”. The “UN: uncharacterized CNS activity” value (hydrochloride) is recorded as “++++ (50% ≤ ++++)”.
In the case of `Cl.NC1COCc2ccc3c(c21)CCCO3` (stereo not drawn) [Example 52, 1,2,4,8,9,10-Hexahydropyrano[4,3-f]chromen-1-amine hydrochloride], the minimal effective dose was 3 to 10 mg/kg, the “AD: ADHD” value is recorded as “+ (LOQ ≤ + <5%)”, the “AG: analgesic” value is listed as “++ (5% ≤ ++ <25%)” and the “AX: anxiolytic” value is given as “+++ (25% ≤ +++ <50%)”. In addition, the “CE: cognitive enhancer” value is “++ (5% ≤ ++ <25%)”, the “DP: anti-depressant” value is on record as “++ (5% ≤ ++ <25%)”, the “MS: mood stabilizer” value is “+ (LOQ ≤ + <5%)” and the “PS: anti-psychotic” value is “++ (5% ≤ ++ <25%)”. For the same molecule, the “SD: sedative hypnotic” value is “++ (5% ≤ ++ <25%)” and the “UN: uncharacterized CNS activity” value is listed as “+ (LOQ ≤ + <5%)”.
Turning to `CCc1cccc2c1C(N)COC2.Cl` (stereo not drawn) [Example 53, 5-Ethylisochroman-4-amine hydrochloride], the minimal effective dose lay within 3 to 10 mg/kg, the “AD: ADHD” value is reported as “+ (LOQ ≤ + <5%)”, the “AG: analgesic” value is on record as “++ (5% ≤ ++ <25%)” and the “AX: anxiolytic” value is recorded as “++ (5% ≤ ++ <25%)”. Further, the “CE: cognitive enhancer” value is reported as “++ (5% ≤ ++ <25%)”, the “DP: anti-depressant” value is “++ (5% ≤ ++ <25%)”, the “MS: mood stabilizer” value is given as “+ (LOQ ≤ + <5%)” and the “PS: anti-psychotic” value is listed as “++ (5% ≤ ++ <25%)”. In addition, the “SD: sedative hypnotic” value is on record as “++ (5% ≤ ++ <25%)” and the “UN: uncharacterized CNS activity” value is “++++ (50% ≤ ++++)”.
For the molecule `CNC1COCc2ccccc21.Cl` (stereo not drawn) [Example 54, N-Methylisochroman-4-amine hydrochloride], the minimal effective dose is 10 to 30 mg/kg, the “AD: ADHD” value was “+ (LOQ ≤ + <5%)”, the “AG: analgesic” value is “++ (5% ≤ ++ <25%)” and the “AX: anxiolytic” value is on record as “++ (5% ≤ ++ <25%)”. Also, the “CE: cognitive enhancer” value is listed as “+ (LOQ ≤ + <5%)”, the “DP: anti-depressant” value is “++ (5% ≤ ++ <25%)”, the “MS: mood stabilizer” value is “+ (LOQ ≤ + <5%)” and the “PS: anti-psychotic” value is reported as “++ (5% ≤ ++ <25%)”. Further, the “SD: sedative hypnotic” value is on record as “+ (LOQ ≤ + <5%)” and the “UN: uncharacterized CNS activity” value is given as “+++ (25% ≤ +++ <50%)”.
Regarding `Cc1ccc2c(c1C)C(NC(C)C)COC2.Cl` (stereo not drawn) [Example 55], the minimal effective dose is 3 to 10 mg/kg, the “AD: ADHD” value is listed as “+ (LOQ ≤ + <5%)”, the “AG: analgesic” value was “++ (5% ≤ ++ <25%)” and the “AX: anxiolytic” value was “++ (5% ≤ ++ <25%)”. Moreover, the “CE: cognitive enhancer” value is given as “++ (5% ≤ ++ <25%)”, the “DP: anti-depressant” value is “+ (LOQ ≤ + <5%)”, the “MS: mood stabilizer” value is “+ (LOQ ≤ + <5%)” and the “PS: anti-psychotic” value was “++ (5% ≤ ++ <25%)”. The “SD: sedative hypnotic” value was “+ (LOQ ≤ + <5%)” and the “UN: uncharacterized CNS activity” value is recorded as “+++ (25% ≤ +++ <50%)”.
On to `Cc1ccc2c(c1C)C(NCCO)COC2.Cl` (stereo not drawn) [Example 56], for which the minimal effective dose lay in the range of 10 to 30 mg/kg, the “AD: ADHD” value was “+ (LOQ ≤ + <5%)”, the “AG: analgesic” value was “+++ (25% ≤ +++ <50%)” and the “AX: anxiolytic” value is “++ (5% ≤ ++ <25%)”. For the same molecule, the “CE: cognitive enhancer” value is given as “++ (5% ≤ ++ <25%)”, the “DP: anti-depressant” value was “++ (5% ≤ ++ <25%)”, the “MS: mood stabilizer” value was “+ (LOQ ≤ + <5%)” and the “PS: anti-psychotic” value is “+ (LOQ ≤ + <5%)”. Moreover, the “SD: sedative hypnotic” value is given as “+ (LOQ ≤ + <5%)” and the “UN: uncharacterized CNS activity” value is given as “+ (LOQ ≤ + <5%)”.
